# Measured values published in US11458123B2 (Arvinas, Inc., priority 2016, dated 2022).
# Test system: tau protein
# Experiment: Tau protein in vitro degradation assay (Western blot, Tau-13 antibody)
# Type: cell-based, human
# Conditions: SK-N-SH cells; 72 hours of incubation; tested at 300 nM, 100 nM, 33 nM and 11 nM; Western blot, Tau-13 antibody
# Procedure, shortened: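 Tau degradation read by Tau-13 Western blot (detects all human tau forms) of SDS-PAGE-resolved lysates from SK-N-SH cells. Cells were plated at least 18 h before 72 h exposure to PROTACs at either 1000/300/100 nM or 300/100/33/11 nM.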
row,Structure (SMILES),Degradation activity* (highest amount of degradation observed at any dosage; tau protein remaining)
1,"Cn1c2ccncc2c2ccc(-c3ccc(N4CC(OCCCCCOCCCCCOc5ccc6c(c5)C(=O)N(C5CCC(=O)NC5=O)C6=O)C4)nc3)cc21 (stereo not shown) [Compound 115, 2-(2,6-dioxopiperidin-3-yl)-5-((5-((5-((1-(5-(5-methyl-5H-pyrido[4,3-b]indol-7-yl)pyridin-2-yl)azetidin-3-yl)oxy)pentyl)oxy)pentyl)oxy)isoindoline-1,3-dione]",C (>80% tau protein remaining after 72 hours of incubation with the test compound)
2,"Cn1c2ccncc2c2ccc(-c3ccc(OCCCCOCCCCN4CC5(CC(Oc6ccc7c(c6)C(=O)N(C6CCC(=O)NC6=O)C7=O)C5)C4)nc3)cc21 (stereo not shown) [Compound 116, 2-(2,6-dioxopiperidin-3-yl)-5-((2-(4-(4-((5-(5-methyl-5H-pyrido[4,3-b]indol-7-yl)pyridin-2-yl)oxy)butoxy)butyl)-2-azaspiro[3.3]heptan-6-yl)oxy)isoindoline-1,3-dione]",C (>80% tau protein remaining after 72 hours of incubation with the test compound)
3,"Cn1c2ccncc2c2ccc(-c3ccc(O[C@H]4C[C@H](Oc5ccc(C#CCOc6ccc7c(c6)C(=O)N(C6CCC(=O)NC6=O)C7=O)nc5)C4)nc3)cc21 (stereo partly shown) [Compound 117, 2-(2,6-dioxopiperidin-3-yl)-5-((3-(5-((1r,3r)-3-((5-(5-methyl-5H-pyrido[4,3-b]indol-7-yl)pyridin-2-yl)oxy)cyclobutoxy)pyridin-2-yl)prop-2-yn-1-yl)oxy)isoindoline-1,3-dione]",C (>80% tau protein remaining after 72 hours of incubation with the test compound)
4,"Cn1c2ccncc2c2ccc(-c3cnc(O[C@H]4C[C@H](Oc5ccc(C#CCOC6CN(c7ccc8c(c7)C(=O)N(C7CCC(=O)NC7=O)C8=O)C6)nc5)C4)c(C(F)(F)F)c3)cc21 (stereo partly shown) [Compound 118, 2-(2,6-dioxopiperidin-3-yl)-5-(3-((3-(5-((1r,3r)-3-((5-(5-methyl-5H-pyrido[4,3-b]indol-7-yl)-3-(trifluoromethyl)pyridin-2-yl)oxy)cyclobutoxy)pyridin-2-yl)prop-2-yn-1-yl)oxy)azetidin-1-yl)isoindoline-1,3-dione]",C (>80% tau protein remaining after 72 hours of incubation with the test compound)
5,"Cc1ncsc1-c1ccc([C@H](C)NC(=O)[C@@H]2C[C@@H](O)CN2C(=O)[C@@H](NC(=O)COCCOCCOCCOCCOc2ncc(-c3ccc4c(c3)[nH]c3ccncc34)cc2C(F)(F)F)C(C)(C)C)cc1 [Compound 119, (2S,4R)-1-((S)-17-((5-(5H-pyrido[4,3-b]indol-7-yl)-3-(trifluoromethyl)pyridin-2-yl)oxy)-2-(tert-butyl)-4-oxo-6,9,12,15-tetraoxa-3-azaheptadecanoyl)-4-hydroxy-N—((S)-1-(4-(4-methylthiazol-5-yl)phenyl)ethyl)pyrrolidine-2-carboxamide]",C (>80% tau protein remaining after 72 hours of incubation with the test compound)
6,"Cc1ncsc1-c1ccc([C@H](C)NC(=O)[C@@H]2C[C@@H](O)CN2C(=O)[C@@H](NC(=O)COCCOc2ccc(-c3ccc4c(c3)[nH]c3ccncc34)cn2)C(C)(C)C)cc1 [Compound 120, (2S,4R)-1-((S)-2-(2-(2-((5-(5H-pyrido[4,3-b]indol-7-yl)pyridin-2-yl)oxy)ethoxy)acetamido)-3,3-dimethylbutanoyl)-4-hydroxy-N—((S)-1-(4-(4-methylthiazol-5-yl)phenyl)ethyl)pyrrolidine-2-carboxamide]",C (>80% tau protein remaining after 72 hours of incubation with the test compound)
7,"Cc1ncsc1-c1ccc([C@H](C)NC(=O)[C@@H]2C[C@@H](O)CN2C(=O)[C@@H](NC(=O)COCCOCCOCCOCCOCCOc2ccc(-c3ccc4c(c3)[nH]c3ccncc34)cn2)C(C)(C)C)cc1 [Compound 121, (2S,4R)-1-((S)-20-((5-(5H-pyrido[4,3-b]indol-7-yl)pyridin-2-yl)oxy)-2-(tert-butyl)-4-oxo-6,9,12,15,18-pentaoxa-3-azaicosanoyl)-4-hydroxy-N—((S)-1-(4-(4-methylthiazol-5-yl)phenyl)ethyl)pyrrolidine-2-carboxamide]",B (≤80% and >50% tau protein remaining after 72 hours of incubation with the test compound)
8,"Cc1ncsc1-c1ccc([C@H](C)NC(=O)[C@@H]2C[C@@H](O)CN2C(=O)[C@@H](NC(=O)COCCOCCOCCOCCOCCOCCOc2ccc(-c3ccc4c(c3)[nH]c3ccncc34)cn2)C(C)(C)C)cc1 [Compound 122, (2S,4R)-1-((S)-23-((5-(5H-pyrido[4,3-b]indol-7-yl)pyridin-2-yl)oxy)-2-(tert-butyl)-4-oxo-6,9,12,15,18,21-hexaoxa-3-azatricosanoyl)-4-hydroxy-N—((S)-1-(4-(4-methylthiazol-5-yl)phenyl)ethyl)pyrrolidine-2-carboxamide]",C (>80% tau protein remaining after 72 hours of incubation with the test compound)
9,"Cn1c2ccncc2c2ccc(-c3cnc(O[C@H]4C[C@H](OC5CCN(CCCCCOc6ccc7c(c6)C(=O)N(C6CCC(=O)NC6=O)C7=O)CC5)C4)c(C(F)(F)F)c3)cc21 (stereo partly shown) [Compound 123, 2-(2,6-dioxopiperidin-3-yl)-5-((5-(4-((1r,3r)-3-((5-(5-methyl-5H-pyrido[4,3-b]indol-7-yl)-3-(trifluoromethyl)pyridin-2-yl)oxy)cyclobutoxy)piperidin-1-yl)pentyl)oxy)isoindoline-1,3-dione]",C (>80% tau protein remaining after 72 hours of incubation with the test compound)
10,"Cn1c2ccncc2c2ccc(-c3ccc(O[C@H]4C[C@H](Oc5ccc(C#CCCCCOc6ccc7c(c6)C(=O)N(C6CCC(=O)NC6=O)C7=O)cc5)C4)nc3)cc21 (stereo partly shown) [Compound 124, 2-(2,6-dioxopiperidin-3-yl)-5-((6-(4-((1r,3r)-3-((5-(5-methyl-5H-pyrido[4,3-b]indol-7-yl)pyridin-2-yl)oxy)cyclobutoxy)phenyl)hex-5-yn-1-yl)oxy)isoindoline-1,3-dione]",C (>80% tau protein remaining after 72 hours of incubation with the test compound)
11,"Cn1c2ccncc2c2ccc(-c3cnc(O[C@H]4C[C@H](OCCCOCCCOC5CN(c6ccc7c(c6)C(=O)N(C6CCC(=O)NC6=O)C7=O)C5)C4)c(C(F)(F)F)c3)cc21 (stereo partly shown) [Compound 125, 2-(2,6-dioxopiperidin-3-yl)-5-(3-(3-(3-((1r,3r)-3-((5-(5-methyl-5H-pyrido[4,3-b]indol-7-yl)-3-(trifluoromethyl)pyridin-2-yl)oxy)cyclobutoxy)propoxy)propoxy)azetidin-1-yl)isoindoline-1,3-dione]",C (>80% tau protein remaining after 72 hours of incubation with the test compound)
12,"Cn1c2ccncc2c2ccc(-c3ccc(O[C@H]4C[C@H](N(C)C5CC6(C5)CN(CCCCCOc5ccc7c(c5)C(=O)N(C5CCC(=O)NC5=O)C7=O)C6)C4)nc3)cc21 (stereo partly shown) [Compound 126, 2-(2,6-dioxopiperidin-3-yl)-5-((5-(6-(methyl((1r,3r)-3-((5-(5-methyl-5H-pyrido[4,3-b]indol-7-yl)pyridin-2-yl)oxy)cyclobutyl)amino)-2-azaspiro[3.3]heptan-2-yl)pentyl)oxy)isoindoline-1,3-dione]",B (≤80% and >50% tau protein remaining after 72 hours of incubation with the test compound)
13,"Cn1c2ccncc2c2ccc(-c3ccc(N4CCC(CN5CCN(c6ccc7c(c6)CN(C6CCC(=O)NC6=O)C7=O)CC5)CC4)nc3)cc21 (stereo not shown) [Compound 127, 3-(5-(4-((1-(5-(5-methyl-5H-pyrido[4,3-b]indol-7-yl)pyridin-2-yl)piperidin-4-yl)methyl)piperazin-1-yl)-1-oxoisoindolin-2-yl)piperidine-2,6-dione]",C (>80% tau protein remaining after 72 hours of incubation with the test compound)
14,"Cn1c2ccncc2c2ccc(-c3ccc(N4CCC(CCN5CCN(c6ccc7c(c6)CN(C6CCC(=O)NC6=O)C7=O)CC5)CC4)nc3)cc21 (stereo not shown) [Compound 128, 3-(5-(4-(2-(1-(5-(5-methyl-5H-pyrido[4,3-b]indol-7-yl)pyridin-2-yl)piperidin-4-yl)ethyl)piperazin-1-yl)-1-oxoisoindolin-2-yl)piperidine-2,6-dione]",C (>80% tau protein remaining after 72 hours of incubation with the test compound)
15,"Cn1c2ccncc2c2ccc(-c3ccc(OCCOCCOCCOCCCCC(Oc4ccc5c(c4)C(=O)N(C4CCC(=O)NC4=O)C5=O)C(F)(F)F)nc3)cc21 (stereo not shown) [Compound 129, 2-(2,6-dioxopiperidin-3-yl)-5-((1,1,1-trifluoro-6-(2-(2-(2-((5-(5-methyl-5H-pyrido[4,3-b]indol-7-yl)pyridin-2-yl)oxy)ethoxy)ethoxy)ethoxy)hexan-2-yl)oxy)isoindoline-1,3-dione]",C (>80% tau protein remaining after 72 hours of incubation with the test compound)
16,"Cn1c2ccncc2c2ccc(-c3cnc(OC4CCN(CCCOCCCOC5CN(c6ccc7c(c6)C(=O)N(C6CCC(=O)NC6=O)C7=O)C5)CC4)c(C(F)(F)F)c3)cc21 (stereo not shown) [Compound 130, 2-(2,6-dioxopiperidin-3-yl)-5-(3-(3-(3-(4-((5-(5-methyl-5H-pyrido[4,3-b]indol-7-yl)-3-(trifluoromethyl)pyridin-2-yl)oxy)piperidin-1-yl)propoxy)propoxy)azetidin-1-yl)isoindoline-1,3-dione]",B (≤80% and >50% tau protein remaining after 72 hours of incubation with the test compound)
